Biological target: T1, LeuT (Leucine Transporter) (Aquifex aeolicus, UniProt O67854, K398C)
T1 construct: gene snf; LeuT K398C labelled with BTFA, in DDM micelles
Assay: 1D […]-NMR, […] L-ala with […] Na+ (shift to outward-facing closed state)
Assay type: binding

C[C@H](N)C(=O)O [Alanine]
1D 19F-NMR, 4 mM L-ala with 200 mM Na+ (shift to outward-facing closed state): Alanine/Na^+ K398C‐BTFA LeuT (Figure 2e) and Phenylalanine/Na^+ K398C‐BTFA LeuT (Figure 2f) which show a similar shift toward S1 resonance
